From US7238374B2, “Process and substances for the release of a growth-regulating factor from endothelial cells” (priority 1998, dated 2007)

Legend:
[1] = Partition between octanol and aqueous phosphate buffer pH 7; type: physicochemical
Protocol: Cells in a culture medium can be viewed as a two-phase system consisting of water and lipids. The distribution of the alkaloids in cell cultures and in mixtures of octanol and water was studied. […] The alkaloids were partitioned between equal volumes of octanol and aqueous phosphate buffer pH 7 (0.01 M) at 20° C. The concentrations c of the alkaloids were determined by HPLC analysis and the coefficients of distribution [formula] were calculated.

[2] = stimulant IMM-2418 (1.1 μM)
Protocol: A RPMI-1640 culture medium (Sigma-Aldrich Company, St. Louis, USA) completed with 10% by volume fetal calf serum, 2 mM glutamin, 50 units/ml penicillin G, and 50 μg/ml streptomycin was used.

[3] = Equilibria of isomers in an octanol-water two-phase system; type: physicochemical; conditions: octanol-water system (1:1) with mitraphylline and isomitraphylline, approximately pH 5
Source text: As expected the equilibrium of isomers in a two-phase system (1aq ? 1org, 2aq ? 2org, FIG. 3) depends not only on the pH value of the aqueous phase but also on the amount and nature of the organic phase, For an example, the equilibria of mitraphylline and isomitraphylline in an octanol-water system (1:1) at pH values from 3 to 7 are shown (FIG. 4). It can be seen that in the pH range from 4 to 7 isomitraphylline is predominant in the octanol phase, with a maximum of 94 mol-% at approximately pH 5. However, below pH 3 mitraphylline begins to prevail in the aqueous phase. At no pH value is isomitraphylline produced in the aqueous phase to a reasonable extent. Therefore, the distribution of the isomers in a 2-phase system is clearly different compared to the situation in a purely aqueous solution.

[4] = octanol / aqueous phosphate buffer pH 7 (0.01 M), equal volumes, 20° C.

SMILES | log KO/W (common logarithm of the partition coefficient) ([1]; pH 7) | log KO/W (common logarithm of the partition coefficient) [1, 4] | also measured
COC(=O)C1=CO[C@@H](C)[C@@H]2CN3CC[C@]4(C(=O)Nc5ccccc54)[C@@H]3C[C@H]12 [Pteropodine] | 2.9 | – | –
COC(=O)C1=CO[C@@H](C)[C@@H]2CN3CC[C@@]4(C(=O)Nc5ccccc54)[C@H]3C[C@H]12 [Speciophylline] | 1.4 | – | –
COC(=O)C1=CO[C@@H](C)[C@@H]2CN3CC[C@]4(C(=O)Nc5ccccc54)[C@H]3C[C@H]12 [Uncarine F] | – | 3.1 | –
COC(=O)C1=CO[C@@H](C)[C@@H]2CN3CC[C@@]4(C(=O)Nc5ccccc54)[C@@H]3C[C@H]12 [Isopteropodine] | 3.2 | – | –
COC(=O)C1=CO[C@@H](C)[C@H]2CN3CC[C@]4(C(=O)Nc5ccccc54)[C@@H]3C[C@H]12 [Mitraphylline] | 2.5 | – | –
CC[C@H]1CN2CC[C@]3(C(=O)Nc4ccccc43)[C@@H]2C[C@@H]1/C(=C\OC)C(=O)OC [Rhynchophylline] | – | 2.7 | alkaloid concentration in RPMI-1640 nutrient medium, 7 Days [2]: 0.13 mg/L; alkaloid concentration in RPMI-1640 nutrient medium, Start [2]: 0.15 mg/L
COC(=O)C1=CO[C@@H](C)[C@H]2CN3CC[C@@]4(C(=O)Nc5ccccc54)[C@@H]3C[C@H]12 [Isomitraphylline] | 2.8 | – | equilibrium concentration in the octanol phase, maximum [3]: 94 mol-%
CC[C@H]1CN2CC[C@@]3(C(=O)Nc4ccccc43)[C@@H]2C[C@@H]1/C(=C\OC)C(=O)OC [Isorhynchophylline] | – | 3.1 | alkaloid concentration in RPMI-1640 nutrient medium, 7 Days [2]: 0.27 mg/L; alkaloid concentration in RPMI-1640 nutrient medium, Start [2]: 0.27 mg/L
